What was measured:
Assay type in all cases: functional
SNB-75 = assay: Cytotoxicity against Homo sapiens (human) SNB75 cells after 48 hr by SRB assay; settings: SNB-75, 48 h
SK-MEL-28 = assay: Cytotoxicity against Homo sapiens (human) SK-MEL-28 cells after 48 hr by SRB assay; settings: SK-MEL-28, 48 h
[1] = Cytotoxicity against Homo sapiens (human) prostate cancer cells after 48 hr by SRB assay; settings: Cancer cell lines
MDA-MB-435 = assay: Cytotoxicity against Homo sapiens (human) MDA-MB-435 cells after 48 hr by SRB assay; settings: MDA-MB-435, 48 h
MDA-MB-231 = assay: Cytotoxicity against Homo sapiens (human) MDA-MB-231 cells after 48 hr by SRB assay; settings: MDA-MB-231, 48 h
U-251 = assay: Cytotoxicity against Homo sapiens (human) U251 cells after 48 hr by SRB assay; settings: U-251, 48 h
UACC-62 = assay: Cytotoxicity against Homo sapiens (human) UACC62 cells after 48 hr by SRB assay; settings: UACC-62, 48 h
NCI-H522 = assay: Cytotoxicity against Homo sapiens (human) NCI-H522 cells after 48 hr by SRB assay; settings: NCI-H522, 48 h
SF-295 = assay: Cytotoxicity against Homo sapiens (human) SF295 cells after 48 hr by SRB assay; settings: SF-295, 48 h
[2] = Cytotoxicity against Homo sapiens (human) leukemia cells after 48 hr by SRB assay; settings: Leukemia cell
SW-620 = assay: Cytotoxicity against Homo sapiens (human) SW620 cells after 48 hr by SRB assay; settings: SW-620, 48 h
NCI-H460 [3] = assay: Cytotoxicity against Homo sapiens (human) NCI-H460 cells after 48 hr by SRB assay; settings: NCI-H460, 48 h
[4] = Cytotoxicity against Homo sapiens (human) renal cancer cells after 48 hr by SRB assay; settings: Cancer cell lines
MCF7 [5] = assay: Cytotoxicity against Homo sapiens (human) MCF7 cells assessed as cellular growth after 48 hr by Alamar blue assay; parameters: concentration or dose not given beside the values
COLO 205 = assay: Cytotoxicity against Homo sapiens (human) COLO205 cells after 48 hr by SRB assay; settings: COLO 205, 48 h
MCF7 [6] = assay: Cytotoxicity against Homo sapiens (human) MCF7 cells after 48 hr by SRB assay; settings: MCF7, 48 h
EKVX = assay: Cytotoxicity against Homo sapiens (human) EKVX cells after 48 hr by SRB assay
RXF 393 = assay: Cytotoxicity against Homo sapiens (human) RXF393 cells after 48 hr by SRB assay; settings: RXF 393, 48 h
NCI-H460 [7] = assay: Cytotoxicity against Homo sapiens (human) NCI-H460 cells assessed as cellular growth after 48 hr by Alamar blue assay; parameters: concentration or dose not given beside the values
786-0 = assay: Cytotoxicity against Homo sapiens (human) 786-0 cells after 48 hr by SRB assay; settings: 786-0, 48 h
OVCAR-4 = assay: Cytotoxicity against Homo sapiens (human) OVCAR4 cells after 48 hr by SRB assay; settings: OVCAR-4, 48 h
HOP-92 = assay: Cytotoxicity against Homo sapiens (human) HOP92 cells after 48 hr by SRB assay; settings: HOP-92, 48 h
T47D = assay: Cytotoxicity against Homo sapiens (human) T47D cells after 48 hr by SRB assay
MOLT-4 = assay: Cytotoxicity against Homo sapiens (human) MOLT4 cells after 48 hr by SRB assay; settings: MOLT-4, 48 h
HT-29 = assay: Cytotoxicity against Homo sapiens (human) HT-29 cells after 48 hr by SRB assay; settings: HT-29, 48 h
UACC-257 = assay: Cytotoxicity against Homo sapiens (human) UACC257 cells after 48 hr by SRB assay; settings: UACC-257, 48 h
CCRF-CEM = assay: Cytotoxicity against Homo sapiens (human) CCRF-CEM cells after 48 hr by SRB assay
SK-OV-3 = assay: Cytotoxicity against Homo sapiens (human) SKOV3 cells after 48 hr by SRB assay; settings: SK-OV-3, 48 h
DU-145 = assay: Cytotoxicity against Homo sapiens (human) DU145 cells after 48 hr by SRB assay; settings: DU-145, 48 h
[8] = Cytotoxicity against Homo sapiens (human) melanoma cells after 48 hr by SRB assay; settings: Melanoma cell
KM12 = assay: Cytotoxicity against Homo sapiens (human) KM12 cells after 48 hr by SRB assay; settings: KM12, 48 h
M14 = assay: Cytotoxicity against Homo sapiens (human) M14 cells after 48 hr by SRB assay; settings: M14, 48 h
OVCAR-5 = assay: Cytotoxicity against Homo sapiens (human) OVCAR5 cells after 48 hr by SRB assay; settings: OVCAR-5, 48 h
HCT-15 = assay: Cytotoxicity against Homo sapiens (human) HCT15 cells after 48 hr by SRB assay; settings: HCT-15, 48 h
A549 = assay: Cytotoxicity against Homo sapiens (human) A549 cells after 48 hr by SRB assay; settings: A549, 48 h
UO-31 = assay: Cytotoxicity against Homo sapiens (human) UO31 cells after 48 hr by SRB assay; settings: UO-31, 48 h
CAKI-1 = assay: Cytotoxicity against Homo sapiens (human) Caki1 cells after 48 hr by SRB assay; settings: CAKI-1, 48 h
OVCAR-8 = assay: Cytotoxicity against Homo sapiens (human) OVCAR8 cells after 48 hr by SRB assay; settings: OVCAR-8, 48 h
IGROV-1 = assay: Cytotoxicity against Homo sapiens (human) IGROV1 cells after 48 hr by SRB assay; settings: IGROV-1, 48 h
[9] = Cytotoxicity against Homo sapiens (human) non-small cell lung cancer cells after 48 hr by SRB assay; settings: Cancer cell lines
[10] = Cytotoxicity against Homo sapiens (human) colon cancer cells after 48 hr by SRB assay; settings: Cancer cell lines
[11] = Cytotoxicity against Homo sapiens (human) ovarian cancer cells after 48 hr by SRB assay; settings: Cancer cell lines
SF-268 = assay: Cytotoxicity against Homo sapiens (human) SF268 cells assessed as cellular growth after 48 hr by Alamar blue assay; parameters: concentration or dose not given beside the values
HCC 2998 = assay: Cytotoxicity against Homo sapiens (human) HCC2998 cells after 48 hr by SRB assay; settings: HCC 2998, 48 h
NCI-H23 = assay: Cytotoxicity against Homo sapiens (human) NCI-H23 cells after 48 hr by SRB assay; settings: NCI-H23, 48 h
HOP-62 = assay: Cytotoxicity against Homo sapiens (human) HOP62 cells after 48 hr by SRB assay; settings: HOP-62, 48 h

## O=C(NC(=S)NS(=O)(=O)c1ccc(N2N=C3c4ccccc4CC3C2c2cccs2)cc1)c1ccccc1 (stereo unspecified)
SNB-75
  GI50: > 100 µM
SK-MEL-28
  GI50: 84 µM
[1]
  GI50: 29 µM
  TGI: > 100 µM
MDA-MB-435
  GI50: 21.7 µM
MDA-MB-231
  GI50: 22.5 µM
U-251
  GI50: 20.1 µM
UACC-62
  GI50: 14.6 µM
NCI-H522
  GI50: 20.5 µM
SF-295
  GI50: 25.4 µM
[2]
  GI50: 27.9 µM
  TGI: 77.2 µM
SW-620
  GI50: 34.8 µM
NCI-H460 [3]
  GI50: > 100 µM
[4]
  GI50: 45.8 µM
  TGI: 87.2 µM
MCF7 [5]
  Activity: <=32%
COLO 205
  GI50: 38.4 µM
MCF7 [6]
  GI50: > 100 µM
EKVX
  GI50: 19.6 µM
RXF 393
  GI50: 54 µM
NCI-H460 [7]
  Activity: <=32%
786-0
  GI50: 27.9 µM
OVCAR-4
  GI50: 87.6 µM
HOP-92
  GI50: 53 µM
T47D
  GI50: 69.6 µM
MOLT-4
  GI50: 26.2 µM
HT-29
  GI50: 46 µM
UACC-257
  GI50: 42.8 µM
CCRF-CEM
  GI50: 27.9 µM
SK-OV-3
  GI50: 90.8 µM
DU-145
  GI50: 28.3 µM
[8]
  GI50: 34.1 µM
  TGI: 67.7 µM
KM12
  GI50: 28.2 µM
M14
  GI50: 21.2 µM
OVCAR-5
  GI50: 18.7 µM
HCT-15
  GI50: 30.2 µM
A549
  GI50: 20.3 µM
UO-31
  GI50: 41.1 µM
CAKI-1
  GI50: 26.1 µM
OVCAR-8
  GI50: 20.3 µM
IGROV-1
  GI50: 3.14 µM
[9]
  GI50: 37.9 µM
  TGI: 78.9 µM
[10]
  GI50: 35.5 µM
  TGI: 85.6 µM
[11]
  GI50: 41.9 µM
  TGI: 95.3 µM
SF-268
  Activity: <=32%

## O=S(=O)(/N=c1\scc(-c2ccccc2)n1-c1ccccc1)c1ccc(N2N=C3c4ccccc4CC3C2c2cccs2)cc1 (stereo unspecified)
SNB-75
  GI50: > 100 µM
SK-MEL-28
  GI50: > 100 µM
[1]
  GI50: 87.5 µM
  TGI: > 100 µM
MDA-MB-435
  GI50: 38.7 µM
HCC 2998
  GI50: 32.8 µM
MDA-MB-231
  GI50: 52.1 µM
U-251
  GI50: 31.2 µM
UACC-62
  GI50: 60.3 µM
NCI-H522
  GI50: 61.9 µM
SF-295
  GI50: 54.5 µM
[2]
  GI50: 55 µM
  TGI: 90.9 µM
SW-620
  GI50: 94.2 µM
NCI-H460 [3]
  GI50: 95.1 µM
[4]
  GI50: 72.1 µM
  TGI: 96.5 µM
MCF7 [5]
  Activity: <=32%
COLO 205
  GI50: > 100 µM
MCF7 [6]
  GI50: 29.1 µM
EKVX
  GI50: 35.5 µM
RXF 393
  GI50: 98.2 µM
NCI-H460 [7]
  Activity: <=32%
786-0
  GI50: 64.2 µM
OVCAR-4
  GI50: > 100 µM
HOP-92
  GI50: > 100 µM
T47D
  GI50: > 100 µM
MOLT-4
  GI50: 19 µM
HT-29
  GI50: 82 µM
UACC-257
  GI50: > 100 µM
CCRF-CEM
  GI50: 50.3 µM
SK-OV-3
  GI50: > 100 µM
DU-145
  GI50: > 100 µM
[8]
  GI50: 74.6 µM
  TGI: > 100 µM
KM12
  GI50: 32.1 µM
M14
  GI50: 81.5 µM
OVCAR-5
  GI50: 88.9 µM
HCT-15
  GI50: 67.4 µM
A549
  GI50: 57 µM
UO-31
  GI50: > 100 µM
CAKI-1
  GI50: 73 µM
NCI-H23
  GI50: 68 µM
OVCAR-8
  GI50: 47.2 µM
HOP-62
  GI50: 73.2 µM
[9]
  GI50: 66.8 µM
  TGI: 98.2 µM
[10]
  GI50: 68.1 µM
  TGI: 96.9 µM
[11]
  GI50: 87.2 µM
  TGI: > 100 µM
SF-268
  Activity: <=32%

## O=C1CCS/C(=N\S(=O)(=O)c2ccc(N3N=C4c5ccccc5CC4C3c3cccs3)cc2)N1c1ccccc1 (stereo unspecified)
SNB-75
  GI50: 30.2 µM
SK-MEL-28
  GI50: 42.1 µM
MDA-MB-435
  GI50: 38.7 µM
HCC 2998
  GI50: 17.9 µM
MDA-MB-231
  GI50: 52.1 µM
U-251
  GI50: 14.4 µM
UACC-62
  GI50: 16.7 µM
NCI-H522
  GI50: 15.9 µM
SF-295
  GI50: 15.8 µM
[2]
  GI50: 48.3 µM
  TGI: 93.9 µM
SW-620
  GI50: 24 µM
NCI-H460 [3]
  GI50: > 100 µM
MCF7 [5]
  Activity: <=32%
COLO 205
  GI50: 36.8 µM
MCF7 [6]
  GI50: 29.1 µM
EKVX
  GI50: 25.7 µM
RXF 393
  GI50: 98.2 µM
NCI-H460 [7]
  Activity: <=32%
786-0
  GI50: 64.2 µM
OVCAR-4
  GI50: 49.3 µM
HOP-92
  GI50: 35.9 µM
T47D
  GI50: > 100 µM
MOLT-4
  GI50: 47 µM
HT-29
  GI50: 37 µM
UACC-257
  GI50: 24.2 µM
CCRF-CEM
  GI50: 28 µM
SK-OV-3
  GI50: 32.9 µM
DU-145
  GI50: > 100 µM
[8]
  GI50: 22 µM
  TGI: 33.8 µM
KM12
  GI50: 17.1 µM
M14
  GI50: 15.3 µM
OVCAR-5
  GI50: 22.4 µM
HCT-15
  GI50: 15.9 µM
A549
  GI50: 14.4 µM
UO-31
  GI50: > 100 µM
CAKI-1
  GI50: 73 µM
NCI-H23
  GI50: 16.7 µM
OVCAR-8
  GI50: 19.2 µM
HOP-62
  GI50: 18.6 µM
IGROV-1
  GI50: 17.4 µM
[9]
  GI50: 29.6 µM
  TGI: 47.4 µM
[10]
  GI50: 24.1 µM
  TGI: 60.7 µM
[11]
  GI50: 27.8 µM
  TGI: 55.4 µM
SF-268
  Activity: <=32%

Source: ChEMBL document CHEMBL3046832, “Synthesis of some sulfonamides, disubstituted sulfonylureas or thioureas and some structurally related variants. A class of promising antitumor agents” (2007)
